The values below come from patent US12275745B2, “Therapeutic compounds and methods of use” (Genentech, Inc., priority 2021, dated 2025).

One experiment has as its target TEAD4 (Homo sapiens, UniProt Q15561). As to the kind of experiment: TR-FRET (Lipid HTRF) TEAD lipid pocket probe displacement assay, TEAD4. Format: binding. The settings on record: His-tagged TEAD4, biotinylated lipid pocket probe, 4 hours.
The target of another experiment is TEAD3 (Homo sapiens, UniProt Q99594). As to the kind of experiment: TR-FRET (Lipid HTRF) TEAD lipid pocket probe displacement assay, TEAD3. Format: binding. Conditions: His-tagged TEAD3, biotinylated lipid pocket probe, 4 hours.
A further experiment deals with TEAD1 (Homo sapiens, UniProt P28347). In words: TR-FRET (Lipid HTRF) TEAD lipid pocket probe displacement assay, TEAD1. The class given is binding. The settings on record: His-tagged TEAD1, biotinylated lipid pocket probe, 4 hours. For orientation: TR-FRET usually uses a lanthanide donor and a delayed reading to cut background.
The target of experiment [1] is T1, TEAD2 (Homo sapiens, UniProt Q15562).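 Also: TR-FRET competition assay with His-tagged TEAD protein and a biotinylated lipid pocket probe, where probe displacement by compound lowers the signal.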
Experimental: (§1) His-tagged TEAD proteins are pre-incubated with TEAD project compounds for 30 minutes or 4 hours at room temperature. Biotinylated lipid pocket probes are then added to the TEAD/Compound mixture and incubated for 60 minutes at room temperature. The lipid pocket probe competes with the test compound for the TEAD lipid pocket until equilibrium is reached. After 60 minutes, Europium labelled anti-His (Perkin Elmer #AD0110) and XL665 labelled streptavidin (CIS Bio 610SAXAC) are added to the TEAD/test compound/lipid pocket mixture and incubated for 30 minutes or 4 hours. TR-FRET values are then measured using an EnVision multi-label plate reader (Perkin Elmer Cat #2104-001 0A.) If the lipid pocket probe binds to TEAD as expected, a TR-FRET signal results from the proximity of anti-His Eu and XL665. If a TEAD lipid pocket binder such as binds and displaces the lipid pocket probe, the disruption of the TEAD:probe interaction results in a decrease in TR-FRET signal. The potency of compounds as TEAD lipid pocket binders is determined by IC50 value generated using a non-linear 4 parameter curve fit.
Experiment [2] deals with T1, TEAD2. As to the kind of experiment: biochemical.
Experimental: as §1

Molecules are shown by their SMILES. Read-outs that look alike come from different tables or passages of the source.

Chain of TEAD4 (Q15561 whole entry, species assumed): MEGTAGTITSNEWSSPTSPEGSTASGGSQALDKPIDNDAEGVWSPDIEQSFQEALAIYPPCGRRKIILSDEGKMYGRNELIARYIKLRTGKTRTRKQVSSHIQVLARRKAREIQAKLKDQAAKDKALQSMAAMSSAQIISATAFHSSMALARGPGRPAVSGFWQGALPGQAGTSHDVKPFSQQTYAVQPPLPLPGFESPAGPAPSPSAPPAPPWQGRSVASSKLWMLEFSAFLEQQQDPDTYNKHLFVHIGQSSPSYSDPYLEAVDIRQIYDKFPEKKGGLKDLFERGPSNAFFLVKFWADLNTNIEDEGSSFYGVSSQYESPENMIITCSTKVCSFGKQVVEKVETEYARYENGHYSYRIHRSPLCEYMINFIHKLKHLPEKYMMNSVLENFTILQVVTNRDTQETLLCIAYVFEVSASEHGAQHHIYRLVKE
Chain of TEAD1 (P28347 whole entry, species assumed): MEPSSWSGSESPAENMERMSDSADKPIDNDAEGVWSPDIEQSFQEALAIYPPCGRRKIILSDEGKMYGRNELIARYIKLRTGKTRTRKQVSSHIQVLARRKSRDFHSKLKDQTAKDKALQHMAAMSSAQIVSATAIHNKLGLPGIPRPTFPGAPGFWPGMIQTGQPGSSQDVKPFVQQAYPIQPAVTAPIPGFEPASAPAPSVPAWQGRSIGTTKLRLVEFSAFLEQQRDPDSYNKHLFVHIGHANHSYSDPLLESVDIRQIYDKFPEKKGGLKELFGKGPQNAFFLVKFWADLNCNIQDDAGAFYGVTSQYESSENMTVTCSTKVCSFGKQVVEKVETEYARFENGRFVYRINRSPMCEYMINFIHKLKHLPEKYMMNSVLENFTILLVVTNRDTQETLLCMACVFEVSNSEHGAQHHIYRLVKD
T1 sequence (Q15562 whole entry, species assumed): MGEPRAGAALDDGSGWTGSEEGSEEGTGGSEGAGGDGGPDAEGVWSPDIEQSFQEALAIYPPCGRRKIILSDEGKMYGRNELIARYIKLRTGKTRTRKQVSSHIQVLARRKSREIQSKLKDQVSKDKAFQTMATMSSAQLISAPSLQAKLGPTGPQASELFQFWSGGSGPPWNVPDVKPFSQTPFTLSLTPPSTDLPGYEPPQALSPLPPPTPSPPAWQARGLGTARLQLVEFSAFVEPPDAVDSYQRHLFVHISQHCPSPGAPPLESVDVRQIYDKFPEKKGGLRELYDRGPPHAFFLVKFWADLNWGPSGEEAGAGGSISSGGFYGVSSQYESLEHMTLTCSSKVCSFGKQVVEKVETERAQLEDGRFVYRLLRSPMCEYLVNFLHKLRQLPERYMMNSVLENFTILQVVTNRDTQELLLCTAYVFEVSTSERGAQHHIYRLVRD
Chain of TEAD3 (Q99594 whole entry, species assumed): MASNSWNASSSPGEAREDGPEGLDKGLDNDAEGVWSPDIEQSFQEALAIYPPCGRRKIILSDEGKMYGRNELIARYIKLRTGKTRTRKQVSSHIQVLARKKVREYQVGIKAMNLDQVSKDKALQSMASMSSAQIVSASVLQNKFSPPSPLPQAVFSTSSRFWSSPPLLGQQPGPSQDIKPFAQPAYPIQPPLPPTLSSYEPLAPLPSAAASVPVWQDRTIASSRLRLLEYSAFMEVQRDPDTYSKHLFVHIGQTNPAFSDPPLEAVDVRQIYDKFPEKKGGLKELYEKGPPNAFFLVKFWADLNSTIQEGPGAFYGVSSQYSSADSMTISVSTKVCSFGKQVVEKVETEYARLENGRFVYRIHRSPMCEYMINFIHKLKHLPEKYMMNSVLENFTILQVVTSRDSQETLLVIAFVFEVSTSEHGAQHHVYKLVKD
Experimental for TEAD1: as §1
Experimental for TEAD4: as §1

For the compound `C=CC(=O)NCc1cc(-c2ccc(OC(F)(F)F)cc2)c2ncn(C)c2c1C#CCO` [Compound 58, N-[[4-(3-hydroxyprop-1-ynyl)-3-methyl-7-[4-(trifluoromethoxy)phenyl]benzimidazol-5-yl]methyl]prop-2-enamide], the IC50 (in general, the point on the concentration scale where inhibition reaches its midpoint) at TEAD4 was 0.0035 µM; on TEAD3, 0.093 µM; at TEAD1 it was 0.0069 µM; against TEAD2 [1], 0.006 µM.

For `C=CC(=O)NCc1cc(-c2ccc(OC(F)(F)F)cc2)c2ncn(C)c2c1[C@@H](C)O` (single isomer, unassigned) [Compound 32], the IC50 on TEAD4 was found to be 0.054 µM; on TEAD3 it was 2.5 µM; at TEAD1 it was 0.032 µM; against TEAD2 [1] it was 0.01 µM.

Turning to `O=C(C1=CCC1)N1CC(c2cc(-c3ccc(OC(F)(F)F)cc3)c3nccnc3c2[C@@H](O)CO)C1` [Compound 86, (R)-Cyclobut-1-en-1-yl(3-(5-(1,2-dihydroxyethyl)-8-(4-(trifluoromethoxy)phenyl)quinoxalin-6-yl)azetidin-1-yl)methanone], the IC50 at TEAD4 turned out to be 0.032 µM; at TEAD3, 0.23 µM; at TEAD2 [2], 0.038 µM; at TEAD1, 0.12 µM.

For `O=C(C1=CCC1)N1CC(c2cc(-c3ccc(OC(F)(F)F)cc3)c3nccnc3c2[C@H](O)CO)C1` [Compound 87, (S)-Cyclobut-1-en-1-yl(3-(5-(1,2-dihydroxyethyl)-8-(4-(trifluoromethoxy)phenyl)quinoxalin-6-yl)azetidin-1-yl)methanone], the concentration for half-maximal inhibition (IC50) amounted to 0.011 µM at TEAD4, 0.14 µM on TEAD3, 0.016 µM at TEAD2 [2] and 0.05 µM at TEAD1.
